≈ marks a conversion by molar mass, not a printed value.
conditions: buffer; pH 7.4; 200.0 µM

`Cc1cccc(C(=O)OCC(=O)N2CCCCCC2)c1O` and `Cc1cccc(C)c1OCC(O)CN1CCCCC1.Cl` (stereo not given) are within 1.5-fold of each other in solubility kinetic: 36 µg/mL (≈ 124 µM) for the first, 43.4 µg/mL for the second.

Compared with `CCOc1ccc(NC(=O)CCC(=O)c2ccc(OC)cc2)cc1`, `COc1ccc(OC)c(NC(=O)CCCSc2ccccc2)c1` is 4.6-fold higher in solubility kinetic: 3 µg/mL (≈ 9.16 µM) for the first, 13.7 µg/mL (≈ 41.3 µM) for the second.

Going from `O=C(/C=C/Nc1ccccc1O)c1ccco1` to `O=C(NCCc1c[nH]c2ccccc12)/C(=C/c1cccnc1)NC(=O)c1ccco1`, the solubility kinetic rises from 5.5 µg/mL (≈ 24 µM) to > 60.1 µg/mL.

`Cc1ccccc1OCc1nc(C#N)c(N2CCCC2)o1` and `O=S(=O)(c1ccccc1)c1nc(-c2ccco2)oc1N1CCCCC1` are within 1.5-fold of each other in solubility kinetic: 10.9 µg/mL (≈ 38.5 µM) for the first, 16.1 µg/mL (≈ 44.9 µM) for the second.

First: COc1cc2ccccc2cc1C(=O)NCc1ccncc1
Second: COc1ccccc1C(=O)NCCOc1ccc(C(C)(C)C)cc1
The solubility kinetic of the first is higher: > 43.9 µg/mL for the first, 2.7 µg/mL (≈ 8.25 µM) for the second.

`CCCc1cnc(N2CCN(S(C)(=O)=O)CC2)nc1` and `Cc1cccc(C)c1N1C(=O)CC(N2CCN(S(=O)(=O)c3ccccc3F)CC2)C1=O` (stereo not given) cannot be ordered by solubility kinetic: > 42.7 µg/mL for the first, 50.7 µg/mL (≈ 114 µM) for the second.

First: O=C(COc1ccccc1)Nc1cc(Cl)ccc1Cl
Second: Cl.OC(CNCc1ccc(Cl)c(Cl)c1)c1ccccc1 (stereo not given)
The solubility kinetic of the first is lower: < 0.6 µg/mL for the first, 47.7 µg/mL for the second.

`C[C@@H](C(=O)Nc1cccnc1)n1c(=O)[nH]c2ccccc2c1=O` and `Cc1ccccc1-n1c(O)c(/C=N/NC(=O)c2ccncc2)c(=O)[nH]c1=O` cannot be ordered by solubility kinetic: > 46.5 µg/mL for the first, > 54.8 µg/mL for the second.

First: O=C(CNc1cc(S(=O)(=O)N2CCOCC2)ccc1N1CCOCC1)Nc1cccc(C(F)(F)F)c1
Second: CN(CC(=O)Nc1ccccc1Cl)C(=O)c1ccc(Cl)c(S(=O)(=O)N2CCCCCC2)c1
The solubility kinetic of the first is 8.6-fold lower: 2.5 µg/mL (≈ 4.73 µM) for the first, 21.6 µg/mL (≈ 43.3 µM) for the second.

Compared with `Nc1c(Cl)nc(-c2ccccc2)nc1Cl`, `Cc1cc(-c2ccccc2)nc(-c2ccccc2)c1C` is lower in solubility kinetic: 7.9 µg/mL (≈ 32.9 µM) for the first, < 0.6 µg/mL for the second.

Compared with `N#C/C(=C\c1ccccc1)C(=O)N1CCN(c2ccccc2F)CC1`, `COc1ccccc1N1CCN(C(=O)c2cc3ccccc3[nH]2)CC1` is 7.6-fold lower in solubility kinetic: 20.4 µg/mL (≈ 60.8 µM) for the first, 2.7 µg/mL (≈ 8.05 µM) for the second.

`Cc1noc(C)c1COC(=O)c1ccc(N(C)C)cc1` and `Cc1ccc(C(=O)O/N=C/c2ccc(N(C)C)cc2)cc1` are within 1.5-fold of each other in solubility kinetic: 1.6 µg/mL (≈ 5.83 µM) for the first, 2.4 µg/mL (≈ 8.5 µM) for the second.

`CCn1c(SCc2ccccc2)nc2c(c1=O)SCC2` and `O=C(c1c(F)cccc1F)N1CCN=C1SCc1ccccc1` are within 1.5-fold of each other in solubility kinetic: 13.5 µg/mL (≈ 44.3 µM) for the first, 18.5 µg/mL (≈ 55.7 µM) for the second.

`O=C(O)CNC(=O)C12CC3CC(CC(Cl)(C3)C1)C2` and `CC(NC(=O)COC(=O)c1cccnc1Cl)C12CC3CC(CC(C3)C1)C2` (stereo not given) cannot be ordered by solubility kinetic: > 40.8 µg/mL for the first, 52.4 µg/mL (≈ 139 µM) for the second.

`Cc1ccc(S(=O)(=O)NC(=O)Nc2cccc(S(=O)(=O)N(C)C)c2)cc1` and `O=C(Nc1ccc(S(=O)(=O)Nc2ccccn2)cc1)C(F)(F)F` cannot be ordered by solubility kinetic: > 59.6 µg/mL for the first, > 51.8 µg/mL for the second.

`CC(C)(C)OC(=O)N1Cc2[nH]c3ccccc3c2C[C@@H]1C(=O)O` and `CCOC(=O)c1c(NCCN(C)C)c2ccccc2[nH]c1=O` cannot be ordered by solubility kinetic: > 47.5 µg/mL for the first, > 45.5 µg/mL for the second.

First: Cc1cc(C)nc(NC2=NCCN2C(=S)Nc2c(C)cccc2C)n1
Second: Cc1cc(C)c2c(N)c(C(=O)Nc3ccc(C)c(C)c3)sc2n1
The solubility kinetic of the first is 16-fold higher: 17.7 µg/mL (≈ 49.9 µM) for the first, 1.1 µg/mL (≈ 3.38 µM) for the second.

Compared with `NS(=O)(=O)c1ccc(Sc2ccc3ccccc3c2)nc1`, `Cn1c(=O)c2nc(-c3ccccc3)c(-c3ccccc3)nc2n(C)c1=O` is 2.3-fold lower in solubility kinetic: 2.1 µg/mL (≈ 6.64 µM) for the first, 0.9 µg/mL (≈ 2.61 µM) for the second.

Going from `CCCN1CCN(C(=S)Nc2sc(CC)cc2C(=O)OC)CC1` to `COc1cc([N+](=O)[O-])ccc1NC(=S)N1CCOCC1`, the solubility kinetic rises from 0.6 µg/mL (≈ 1.69 µM) to > 44.6 µg/mL.

Compared with `Cn1ccnc1SCC(=O)Nc1nc2c(F)c(F)c(F)cc2s1`, `Cc1nnc(SCC(=O)NC(=O)NCc2ccco2)s1` is higher in solubility kinetic: 0.6 µg/mL (≈ 1.67 µM) for the first, > 46.9 µg/mL for the second.

`CC1NC(C)(C)Cc2c1ccc1ccccc21.Cl` (stereo not given) and `CN1C(=O)c2ccccc2N(C)C1c1cccc(O)c1` (stereo not given) are within 1.5-fold of each other in solubility kinetic: 37.6 µg/mL for the first, 38.1 µg/mL (≈ 142 µM) for the second.

`C=Cn1cc[n+](CC(=O)c2cccs2)c1.[Br-]` and `C=CCNC(=S)NNC(=O)c1ccncc1` cannot be ordered by solubility kinetic: > 44.9 µg/mL for the first, > 35.4 µg/mL for the second.

Compared with `O=C(NCCc1ccc(F)cc1)NC12CC3CC(CC(C3)C1)C2`, `O=C(NN=C1CCCCCCC1)c1ccc(F)cc1` is higher in solubility kinetic: 6.5 µg/mL (≈ 20.5 µM) for the first, > 39.3 µg/mL for the second.

Compared with `CC(=O)N1CCCC(C(=O)c2ccc(Oc3ccccc3)cc2)C1` (stereo not given), `O=C(Oc1ccc(C(=S)N2CCOCC2)cc1Cl)c1ccccc1F` is lower in solubility kinetic: > 48.5 µg/mL for the first, 9.9 µg/mL (≈ 26.1 µM) for the second.

`O=C(Cc1ccccc1[N+](=O)[O-])N1CCOCC1` and `O=C(C1CC(=O)N(c2ccccc2F)C1)N1CCOCC1` (stereo not given) cannot be ordered by solubility kinetic: > 37.5 µg/mL for the first, > 43.8 µg/mL for the second.

Going from `CCCCSCCCNC(=S)Nc1ccccc1C` to `CN(C)CCNC(=S)Nc1ccccc1C(C)(C)C`, the solubility kinetic rises from 35.3 µg/mL (≈ 119 µM) to > 41.9 µg/mL.

Compared with `CCOc1nc(NCCO)nc(Nc2ccccc2F)n1`, `O=C(COC(=O)COc1ccccc1F)Nc1ccc(Cl)cn1` is lower in solubility kinetic: > 44 µg/mL for the first, 7.6 µg/mL (≈ 22.4 µM) for the second.

`CC(C)c1ccc(N2C(=O)CC(=O)NC2=O)cc1` and `CC(C)CCC1(C)NC(=O)N(CC(=O)Nc2ccc3c(c2)OCCO3)C1=O` (stereo not given) are within 1.5-fold of each other in solubility kinetic: 34.4 µg/mL (≈ 140 µM) for the first, 49.6 µg/mL (≈ 132 µM) for the second.

Compared with `COc1ccc(NC(=O)Nc2ccccc2SC)cc1OC`, `COc1ccc(NC(=O)CN2CCc3ccccc3C2)c(OC)c1` is 57-fold higher in solubility kinetic: 0.6 µg/mL (≈ 1.88 µM) for the first, 34.1 µg/mL (≈ 104 µM) for the second.

First: COc1ccc2[nH]c(=O)c(CNc3cc(C)ccc3C)cc2c1
Second: COc1cccc(CNCCc2c[nH]c3ccccc23)c1
The solubility kinetic of the first is 20-fold lower: 1.8 µg/mL (≈ 5.84 µM) for the first, 35.8 µg/mL (≈ 128 µM) for the second.

Going from `COc1ccc(Br)c(C(=O)OCC(=O)N2CCc3ccccc32)c1` to `O=C(/C=C/c1ccccc1)OCC(=O)c1c[nH]c2ccccc12`, the solubility kinetic rises from 2.3 µg/mL (≈ 5.89 µM) to 3.9 µg/mL (≈ 12.8 µM) (1.7-fold).

Going from `O=C(O)c1cccnc1SCc1cn2cc(Cl)ccc2n1` to `O=C(CSc1ccccc1C(=O)O)NCc1ccccc1`, the solubility kinetic falls from > 48 µg/mL to 44 µg/mL (≈ 146 µM).

Compared with `COc1cccc(C=Nc2ccc3c(c2)CCC3)c1O`, `C/C(=N/NC(=O)c1ccncc1)c1ccc2c(c1)OCO2` is higher in solubility kinetic: 26.8 µg/mL (≈ 100 µM) for the first, > 42.5 µg/mL for the second.

`CN(C)/C=C/C(=O)c1cc(N2CCOCC2)ccc1[N+](=O)[O-]` and `O=C(CN1CCOCC1)Nc1ccc(Cl)cc1` cannot be ordered by solubility kinetic: > 45.8 µg/mL for the first, > 38.2 µg/mL for the second.

`CC(C)CC(=O)Nc1ncc([N+](=O)[O-])s1` and `CCCc1c(O)nc(SCC(=O)NCc2ccco2)[nH]c1=O` cannot be ordered by solubility kinetic: > 34.4 µg/mL for the first, > 48.5 µg/mL for the second.

Compared with `CN1CCC(CO)(Cc2ccccc2)CC1`, `O=C(c1ccccc1)N1CCN(S(=O)(=O)N2CCCCCC2)CC1` is higher in solubility kinetic: 28.6 µg/mL (≈ 130 µM) for the first, > 52.7 µg/mL for the second.

Compared with `COc1ccc(N(C=O)C(C(=O)Nc2c(C)cccc2C)c2ccccc2)cc1` (stereo not given), `CN(CC(=O)Nc1cccc(F)c1)CC(=O)Nc1ccccc1-c1ccccc1` is 11-fold higher in solubility kinetic: 1.6 µg/mL (≈ 4.12 µM) for the first, 17.3 µg/mL (≈ 44.2 µM) for the second.

Going from `Nc1nc(NCC2CCCO2)nc(Nc2cccc(F)c2)c1[N+](=O)[O-]` (stereo not given) to `CCC1CCCCN1C(=O)/C=C/c1ccc2c(c1)OCO2` (stereo not given), the solubility kinetic rises from < 0.1 µg/mL to > 43.1 µg/mL.

First: Cl.Clc1cccc(CNCCCSc2ncccn2)c1
Second: CN(C)c1ccc(C(=O)NCc2ccc3c(c2)OCO3)cc1
The solubility kinetic of the first is higher: > 49.5 µg/mL for the first, 10.2 µg/mL (≈ 34.2 µM) for the second.

Compared with `COC(=O)c1c(C)oc(C)c1S(=O)(=O)NC(C)(C)C`, `CCOC(=O)CSc1nc(C)c2cc(C)c(C)cc2n1` is lower in solubility kinetic: > 43.4 µg/mL for the first, 6 µg/mL (≈ 20.7 µM) for the second.

First: CCC(C)[C@H](NC(=O)NCCC1=CCCCC1)C(=O)O (stereo not given in full)
Second: CC1CC(C)CN(C(=O)CN2C(=O)NC3(CCCCCC3)C2=O)C1 (stereo not given)
The solubility kinetic of the first is lower: 38.2 µg/mL (≈ 135 µM) for the first, > 50.3 µg/mL for the second.

Compared with `O=C(N/C=C/n1cnc2cc(C(F)(F)F)ccc21)c1ccccc1F`, `CCN(CC)CC#CC(O)(c1ccccc1)c1ccccc1` is higher in solubility kinetic: 4.9 µg/mL (≈ 14 µM) for the first, > 44 µg/mL for the second.

In the case of `Cc1ccc(CN2CCCN(Cc3ccc(C)cc3)S2(=O)=O)cc1`, the solubility kinetic is reported as < 0.4 µg/mL.

— PubChem BioAssay AID1996
